Measurements reported in patent publication US20240374558A1, “PREPARATION OF PHENE[…] […] STEREOISOMERS THEREOF AND PRECURSORS THEREOF” (priority 2022, published 2024).
Counter-ions that a name gives are not always drawn.

Tests used:
Type in all cases: cell-based
[1] = molecular target: T1, Kc4.3/ChIP2 (Homo sapiens, UniProt Q9UK17); assay: hKv4.3/hKChIP2 Potassium Channel Assay, Qube APC; conditions: Antagonist mode; HEK-Kv4.3/KChIP2; test compound
T1 construct: host or cells: HEK
T1 sequence (Q9UK17 1-655): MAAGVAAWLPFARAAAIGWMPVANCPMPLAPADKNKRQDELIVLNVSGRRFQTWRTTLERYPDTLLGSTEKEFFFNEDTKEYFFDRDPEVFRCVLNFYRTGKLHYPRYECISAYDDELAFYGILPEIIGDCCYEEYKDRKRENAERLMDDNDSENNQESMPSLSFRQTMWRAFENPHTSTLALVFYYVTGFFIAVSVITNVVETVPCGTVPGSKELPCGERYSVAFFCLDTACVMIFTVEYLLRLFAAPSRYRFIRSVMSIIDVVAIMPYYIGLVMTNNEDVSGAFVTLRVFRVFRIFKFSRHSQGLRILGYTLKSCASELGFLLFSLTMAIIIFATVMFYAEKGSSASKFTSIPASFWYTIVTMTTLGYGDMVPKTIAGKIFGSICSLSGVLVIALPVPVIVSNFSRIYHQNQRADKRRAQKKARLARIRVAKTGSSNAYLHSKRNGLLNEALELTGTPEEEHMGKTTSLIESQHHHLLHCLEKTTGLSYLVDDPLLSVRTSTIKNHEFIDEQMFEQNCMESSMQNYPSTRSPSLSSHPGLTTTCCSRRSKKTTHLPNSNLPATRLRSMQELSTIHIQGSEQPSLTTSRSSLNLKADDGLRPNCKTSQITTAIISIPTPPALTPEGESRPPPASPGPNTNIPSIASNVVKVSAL
T1 sequence (Q9NS61 1-270 partner): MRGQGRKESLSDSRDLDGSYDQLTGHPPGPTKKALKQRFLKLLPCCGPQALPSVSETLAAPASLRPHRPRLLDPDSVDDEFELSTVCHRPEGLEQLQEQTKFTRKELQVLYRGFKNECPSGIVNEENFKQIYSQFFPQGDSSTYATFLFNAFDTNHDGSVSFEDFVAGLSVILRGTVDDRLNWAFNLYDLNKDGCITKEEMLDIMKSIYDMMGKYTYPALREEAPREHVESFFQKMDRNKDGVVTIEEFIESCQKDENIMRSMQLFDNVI
Procedure: (§1) Electrophysiological assays were conducted to profile three compounds ((R)-methylone, (S)-methylone, or racemic methylone) for activities on the ion channel targets specified below using the Qube electrophysiological platform. Where presented, IC50 values were determined by a non-linear, least squares regression analysis. Reference standards were run as an integral part of each assay to ensure the validity of the results obtained.
(§2) Ion Channels tested were Eurofins Panel Part Number: CPROFullQB2DR Voltage-Gated Sodium: HEK-Nav1.5 (Peak), HEK-Nav1.5 (Late, Antagonist) Voltage-Gated Potassium: HEK-Kv4.3/KChIP2, CHO-hERG, CHO-KCNQ1/minK Voltage-Gated Calcium: HEK-Cav1.2 Inward-Rectifying Voltage-Gated Potassium: HEK-Kir2.1.
(§3) Methods employed in this study have been developed and validated with reliability and reproducibility by Eurofins. Assays were performed under conditions below. [0217] hNavL.5 Sodium Channel Assay—Qube APC Onset and steady state block of peak Nay1.5 current is measured using a pulse pattern, repeated every 5 sec, consisting of a hyperpolarizing pulse to −120 mV for a 200 ms duration, depolarization to −15 mV amplitude for a 40 ms duration, followed by step to 40 mV for 200 ms and finally a 100 ms ramp (1.2 V/s) to a holding potential of −80 mV. Peak current is measured during the step to −15 mV. […] Onset and steady state block of hKv4.3 current is measured using a pulse pattern from −80 mV to 40 mV amplitude for a 110 ms duration, and finally a 100 ms ramp (1.2 V/s) to −80 mV. […] [0220] hNav1.5 Late Current Sodium Channel Assay—Qube APC Onset and steady state block of Late Nay1.5 current is measured using a pulse pattern, repeated every 5 sec, consisting of a hyperpolarizing pulse to −120 mV for a 200 ms duration, depolarization to −15 mV amplitude for a 40 ms duration, followed by step to 40 mV for 200 ms and finally a 100 ms ramp (1.2 V/s) to a holding potential of −80 mV. Late current is measured as charge current elicited during the ramp with 50 nM ATXII.

[2] = molecular target: T2, Nav1.5 Late Current (Homo sapiens, UniProt Q14524); assay: hNav1.5 Late Current Sodium Channel Assay, Qube APC; conditions: Antagonist mode; HEK-Nav1.5 (Late), 50 nM ATXII; test compound
T2 construct: host or cells: HEK-293
T2 sequence (Q14524 whole entry): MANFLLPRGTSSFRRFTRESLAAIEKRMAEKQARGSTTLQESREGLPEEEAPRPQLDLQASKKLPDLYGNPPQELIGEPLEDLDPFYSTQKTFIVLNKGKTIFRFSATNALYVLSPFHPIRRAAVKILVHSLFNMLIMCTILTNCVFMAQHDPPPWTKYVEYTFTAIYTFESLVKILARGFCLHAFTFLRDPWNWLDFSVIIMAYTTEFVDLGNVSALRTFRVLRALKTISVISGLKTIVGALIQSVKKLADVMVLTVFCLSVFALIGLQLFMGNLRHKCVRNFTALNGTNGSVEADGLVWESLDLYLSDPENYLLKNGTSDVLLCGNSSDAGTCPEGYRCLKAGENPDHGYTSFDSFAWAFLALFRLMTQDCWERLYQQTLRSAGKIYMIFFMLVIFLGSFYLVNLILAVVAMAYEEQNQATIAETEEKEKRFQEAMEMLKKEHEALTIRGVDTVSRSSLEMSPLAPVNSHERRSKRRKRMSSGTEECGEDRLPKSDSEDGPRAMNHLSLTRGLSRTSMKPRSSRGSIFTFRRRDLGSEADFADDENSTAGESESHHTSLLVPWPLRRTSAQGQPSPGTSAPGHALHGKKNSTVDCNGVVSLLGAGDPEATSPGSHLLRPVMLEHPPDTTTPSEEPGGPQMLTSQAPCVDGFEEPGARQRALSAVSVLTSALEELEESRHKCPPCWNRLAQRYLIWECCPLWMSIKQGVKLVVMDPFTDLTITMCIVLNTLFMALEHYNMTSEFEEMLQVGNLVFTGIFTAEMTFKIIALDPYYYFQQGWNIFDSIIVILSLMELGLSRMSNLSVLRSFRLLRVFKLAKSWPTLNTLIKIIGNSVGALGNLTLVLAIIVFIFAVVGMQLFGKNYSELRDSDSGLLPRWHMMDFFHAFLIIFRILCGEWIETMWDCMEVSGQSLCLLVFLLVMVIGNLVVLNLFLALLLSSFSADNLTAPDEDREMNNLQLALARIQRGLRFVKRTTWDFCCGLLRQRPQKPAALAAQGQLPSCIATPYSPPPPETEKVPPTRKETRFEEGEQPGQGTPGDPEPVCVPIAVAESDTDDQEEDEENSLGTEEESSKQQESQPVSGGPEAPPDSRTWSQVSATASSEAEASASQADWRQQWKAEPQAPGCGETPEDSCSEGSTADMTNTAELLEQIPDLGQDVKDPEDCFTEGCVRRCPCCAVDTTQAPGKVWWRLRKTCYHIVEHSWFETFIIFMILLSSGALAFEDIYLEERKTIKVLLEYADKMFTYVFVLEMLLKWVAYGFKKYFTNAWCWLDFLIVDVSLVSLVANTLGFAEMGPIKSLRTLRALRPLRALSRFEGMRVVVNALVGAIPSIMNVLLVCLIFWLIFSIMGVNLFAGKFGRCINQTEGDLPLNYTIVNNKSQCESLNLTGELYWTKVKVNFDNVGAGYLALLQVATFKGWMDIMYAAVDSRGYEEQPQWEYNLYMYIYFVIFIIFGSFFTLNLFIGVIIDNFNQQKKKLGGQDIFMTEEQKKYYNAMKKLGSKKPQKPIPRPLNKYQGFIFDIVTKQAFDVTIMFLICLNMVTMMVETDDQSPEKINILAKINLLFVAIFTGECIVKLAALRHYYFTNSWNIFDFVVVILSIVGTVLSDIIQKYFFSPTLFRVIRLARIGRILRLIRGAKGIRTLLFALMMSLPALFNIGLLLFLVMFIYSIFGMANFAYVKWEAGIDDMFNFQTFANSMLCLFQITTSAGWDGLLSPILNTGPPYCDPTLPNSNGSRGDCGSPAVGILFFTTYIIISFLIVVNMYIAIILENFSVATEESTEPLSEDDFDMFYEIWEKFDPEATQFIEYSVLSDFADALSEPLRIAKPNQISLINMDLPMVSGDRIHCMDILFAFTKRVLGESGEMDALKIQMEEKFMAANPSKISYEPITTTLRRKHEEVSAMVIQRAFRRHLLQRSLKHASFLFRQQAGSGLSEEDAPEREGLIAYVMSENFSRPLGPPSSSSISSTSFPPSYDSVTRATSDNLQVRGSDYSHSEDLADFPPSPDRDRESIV
Procedure: as §1, §2, §3

[3] = molecular target: T3, Kir2.1 (Homo sapiens, UniProt P63252); conditions: Antagonist mode; HEK-Kir2.1; test compound
T3 construct: host or cells: HEK
T3 sequence (P63252 1-427): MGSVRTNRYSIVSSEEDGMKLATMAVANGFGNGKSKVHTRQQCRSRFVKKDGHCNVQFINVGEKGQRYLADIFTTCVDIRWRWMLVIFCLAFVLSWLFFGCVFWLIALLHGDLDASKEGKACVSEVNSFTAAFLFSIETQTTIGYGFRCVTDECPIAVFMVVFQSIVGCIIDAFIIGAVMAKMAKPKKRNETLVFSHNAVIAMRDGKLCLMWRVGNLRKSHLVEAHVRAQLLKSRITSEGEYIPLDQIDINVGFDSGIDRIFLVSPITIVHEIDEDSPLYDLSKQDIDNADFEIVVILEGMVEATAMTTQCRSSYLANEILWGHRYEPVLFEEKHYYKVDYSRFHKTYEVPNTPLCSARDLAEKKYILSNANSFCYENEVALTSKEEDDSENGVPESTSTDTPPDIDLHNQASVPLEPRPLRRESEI
Procedure: as §1, §2
hKCNQ1/hminK Potassium Channel Assay—Qube APC After whole cell configuration is achieved, the cells are held at −80 mV. KCNQ1/minK currents are evoked by a 1000 ms pulse from −80 mV to 60 mV followed by a ramp from 60 mV to −80 mV over 115 ms with the outward peak currents measured upon depolarization of the cell membrane. This paradigm is delivered once every 15s to monitor the current amplitude. [0223] hKir2.1 Potassium Channel Assay—Qube APC After whole cell configuration is achieved, the cells are held at −30 mV. Kir2.1 currents are evoked by a single 500 ms pulse to -120 mV before returning to the holding potential of −30 mV. This paradigm is delivered once every 20s to monitor the current amplitude.

SMILES	Estimated IC50 [1]	Estimated IC50 [2]	Estimated IC50 [3]
CN[C@H](C)C(=O)c1ccc2c(c1)OCO2 [(R)-methylone]	N/C (N/C indicates observed mean inhibition was <25%)	N/C (N/C indicates observed mean inhibition was <25%)	N/C (N/C indicates observed mean inhibition was <25%)
CN[C@@H](C)C(=O)c1ccc2c(c1)OCO2 [(S)-methylone]	N/C (N/C indicates observed mean inhibition was <25%)	N/C (N/C indicates observed mean inhibition was <25%)	N/C (N/C indicates observed mean inhibition was <25%)
CNC(C)C(=O)c1ccc2c(c1)OCO2 (stereo not drawn) [Methylone HCl, methylone HCl]	N/C (N/C indicates observed mean inhibition was <25%)	N/C (N/C indicates observed mean inhibition was <25%)	N/C (N/C indicates observed mean inhibition was <25%)
